Patent publication US10112932B2, “Benzoxazepin oxazolidinone compounds and methods of use” (Genentech, Inc., priority 2015, dated 2018)
pEC50, pIC50, pKi: −log10 of the molar value. Read-outs that look alike come from different tables or passages of the source.

What was measured:
[1] = target: PI3Kα (Homo sapiens (Human), UniProt P42336); experiment: Biochemical inhibition of PI3K alpha (ADP-Glo lipid kinase assay, Example 901); settings: geometric mean of minimum three experiments unless footnoted
Procedure: Reactions are carried out using the following conditions for each PI3K isoform as in Table 5.
All reactions are carried out at room temperature. […] The reaction is started by the addition of 2 μl ATP/MgCl2. The kinase reaction buffer contains 50 mM HEPES, 50 mM NaCl 3 mM MgCl2, 0.01% BSA, 1% DMSO, and enzyme and substrate concentrations as indicated in the above table. The reaction is stopped by the addition of 10 μL ADP-Glo reagent. Plates are read in a Perkin Elmer Envision system using luminescence mode. 10 point dose response curves are generated for each test compound. Ki values for each compound are determined using the Morrison Equation.

[2] = test system: MCF7 cells (PI3Kα mutant E545K); experiment: Cell viability / antiproliferative assay in MCF7 cells (Example 903); format: cell-based; settings: Homo sapiens, MCF7, 96 h, read-out: MCF7 antiproliferative EC50
Procedure: Cells were seeded (1,500 per well) in 384-well plates for 16 h. On day 2, nine serial 1:3 compound dilutions were made in DMSO in a 96-well plate. The compounds were then further diluted into growth media using a Rapidplate robot (Zymark Corp.). […] After 4 d, relative numbers of viable cells were measured by luminescence using Cell Titer-Glo (Promega) according to the manufacturer's instructions and read on a Wallac Multilabel Reader (Perkin-Elmer). EC50 values were calculated using Prism 6.0 software (GraphPad).

[3] = test system: CD69 expression in CD19+ CD27− B cells; experiment: B-cell a-IgM CD69 expression, human whole blood assay (Example 906); format: cell-based
Procedure: The expression of CD69 in B-cells resultant from a-IgM treatment is believed to be driven by signaling through PI3Kδ (delta).
Human whole blood was dispensed into 96-deep well plates at 100 μl per well. Compounds were diluted in DMSO to generate the desired stock concentrations and then further diluted in PBS to the desired working concentration and added in a volume of 5.5 μL per well. Samples were then incubated for 1 hour at 37° C. under 5% CO2 before the addition of 5 μg (10 μl per well) of Goat anti IgM F(ab′)2 (Southern Biotech, AL), and incubated for 18 hours at 37° C. under 5% CO2. All treatments were tested in duplicate.
In addition, human whole blood from each donor was stained with isotype-matched fluorescent control antibodies. After the addition of the appropriate antibody cocktail the whole blood samples were stained for 30 minutes in the dark and then lysed using BD Pharm Lysis (BD Bioscience, NJ). The resulting samples were then washed with FACS Buffer (Phosphate Buffered Saline (Ca:Mg++ free), 1 mM EDTA, 25 mM HEPES pH 7.0, 1% Fetal Bovine Serum (Heat-Inactivated) and fixed in FACS Buffer supplemented with 0.1% Formaldehyde (Polysciences Inc, PA) and 0.1% Pluronic F-68 (Sigma, MO). Data were acquired using a BD LSR-II (BD Biosciences) with BD FACSDiva software.
Cells were assessed by flow cytometry for levels of CD19, CD27 and CD69 using BD FACSDiva Software and the CD69 MFI-Mean of the CD19^+ CD27^− lymphocyte population was determined.

[4] = target: p110α (Homo sapiens (Human), UniProt P42336, H1047R); experiment: p110α degradation, Western blot in HCC1954 and HDQ-P1 cells after 24 hour treatment (Example 905); format: cell-based; settings: HCC1954 (PI3Kα mutant H1047R) vs. HDQ-P1 (PI3Kα wild-type)
Procedure: Cell lines were grown under standard tissue culture conditions in RPMI media with 10% fetal bovine serum, 100 U/mL penicillin, and 100 μg/mL streptomycin.

[5] = Multiple day oral dosing in dogs (exposure, clinical and anatomic pathology); format: in vivo, Beagle dogs; settings: for concentration at 14 day / Cmax / AUC(0-t): Beagle, plasma; for concentration at 14 day / Cmax / AUC(0-t) / Cmax D14, free / Exposure AUC0-24 hr, D14, free / Exposure multiples (free, AUC) / Exposure multiples (total, AUC) / Exposure multiples to CD69 IC50 (total, Cmin): dog; for concentration at 14 day: oral, read-out: Cmin D14, total; for Cmax / AUC(0-t): po; for Cmax: read-out: Cmax D14, total; for AUC(0-t): read-out: Exposure AUC0-24 hr, D14, total; for Exposure multiples (free, AUC) / Exposure multiples (total, AUC): vs TGI60 from 21-day HCC1954 TGI study; for Exposure multiples to CD69 IC50 (total, Cmin): whole-blood CD69 IC50 = 142 nM
Text: The extent and severity of findings is consistent with increased inhibition of PI3Kδ (delta) at exposure multiples over CD69 IC50 for the comparator compounds.

[6] = Unbound fraction in dog plasma (Fu); format: in vitro ADME; settings: read-out: Fu dog (unbound fraction in species plasma)
[7] = Unbound fraction in mouse plasma (Fu); format: in vitro ADME; settings: read-out: Fu mouse (unbound fraction in species plasma)
[8] = test system: HDQ-P1 (PI3Kα wild-type), p-PRAS40; experiment: p-PRAS40 MSD assay in HDQ-P1 cells (Example 907); settings: Homo sapiens, HDQ-P1, 24 h, read-out: P-PRAS40 HDQ-P1 MSD EC50
[9] = test system: HCC1954 (PI3Kα mutant H1047R), p-PRAS40; experiment: p-PRAS40 MSD assay in HCC1954 cells (Example 907); settings: Homo sapiens, HCC1954, 24 h, read-out: P-PRAS40 HCC1954 MSD EC50
Procedure: The following day, cells are treated with compounds and incubated for 24 hours. […] The HCC1954 cell line expresses mutant PI3Kα (E545K) vs WT in HDQP1.
The MSD platform provides a method of measuring the phosphorylated levels of pPRAS40 in a single sample. […] Following cell lysis, PRAS40 in samples is allowed to bind to the capture antibodies.
Procedure: • Compounds prepared at concentration of 2 mM in DMSO.
Day 1: Cell Plating • 1. Seed 12.500 cells in 45 ul medium for each cell line. Allow cells to settle/attach to plate for 15-20 min at room temperature. • 2. Incubate cells overnight in a 37° C. humidity and CO2 controlled incubator.
Day 2: Compound Plate Preparation and Compound Treatment • 1. For the 10× intermediate dilution plate: add 95 ul serum-free media into a standard profile greiner 384 well polypropylene plate. • 2. Use biomek Fx protocol for intermediate compound dilution in media and addition to cells: “SLS Intermed Dil Add 5 ul to Cells Jul. […] The method then transfers 5 ul from the intermediate dilution plate to the appropriate cell plate. • 3. Incubate the treated cells at 37 degrees for 24 hours in a 5% CO2 humidified incubator.
Block the MSD assay plate with 50 ul 3% Blocker A/1×MSD Wash Buffer 1-2 hr at room temp. […] Blocking buffer A contains 1×MSD wash buffer. 20 mL 1× Tris Wash buffer and 600 mg Blocker A.
Aspirate Media and Lyse the Cells • 1. Lyse the cells in 50 μl lysis buffer. Lyse at room temperature for 10-20 minutes on plate shaker. • 2. While cells are lysing, wash blocked plates 1×MSD wash buffer. • 3. Transfer 42 ul lysates (21+21 μL) to a blocked MSD pPRAS40 assay plate. • 4. Seal MSD plates and incubate at 4° C. with shaking overnight.
Day 4: MSD Assay/Detection • 8. Make a solution of 1% Blocker A in 1×MSD wash buffer. (20 mL 1× Tris Wash buffer and 200 mg Blocker A (1% w/v). This solution can be stored at 4° C. for up to one month. • 9. Wash the MSD plates with 1×MSD wash buffer. • 10. Add 10 μl of the diluted SULFO-TAG detection antibody to the plates. Incubate for 1 hr with shaking at room temp.
Wash the plates 4× with 1×MSD wash buffer. • 12. Add 35 μl 1× Read buffer with reverse pipetting to avoid bubbles. • 13. Read the plate immediately on the MSD SECTOR instrument.

[10] = test system: HCC1954 cells (PI3Kα mutant H1047R); experiment: Cell viability / antiproliferative assay in HCC1954 cells (Example 903); settings: Homo sapiens, HCC1954, 96 h, read-out: HCC1954 antiproliferative EC50
[11] = test system: SW48 (parental) PI3Kα wild-type cells, P-PRAS40; experiment: Inhibition of P-PRAS40 in SW48 isogenic cells, PI3Kα wild-type parental (Example 902); settings: Homo sapiens, SW48, 24 h, read-out: P-PRAS40 SW48 (parental) EC50
[12] = test system: SW48 (E545K) PI3Kα mutant cells, P-PRAS40; experiment: Inhibition of P-PRAS40 in SW48 isogenic cells, helical domain mutant E545K (Example 902); settings: Homo sapiens, SW48, 24 h, read-out: P-PRAS40 SW48 (E545K) EC50
[13] = test system: SW48 (H1047R) PI3Kα mutant cells, P-PRAS40; experiment: Inhibition of P-PRAS40 in SW48 isogenic cells, kinase domain mutant H1047R (Example 902); settings: Homo sapiens, SW48, 24 h, read-out: P-PRAS40 SW48 (H1047R) EC50

Sequence of p110α (P42336 whole entry H1047R): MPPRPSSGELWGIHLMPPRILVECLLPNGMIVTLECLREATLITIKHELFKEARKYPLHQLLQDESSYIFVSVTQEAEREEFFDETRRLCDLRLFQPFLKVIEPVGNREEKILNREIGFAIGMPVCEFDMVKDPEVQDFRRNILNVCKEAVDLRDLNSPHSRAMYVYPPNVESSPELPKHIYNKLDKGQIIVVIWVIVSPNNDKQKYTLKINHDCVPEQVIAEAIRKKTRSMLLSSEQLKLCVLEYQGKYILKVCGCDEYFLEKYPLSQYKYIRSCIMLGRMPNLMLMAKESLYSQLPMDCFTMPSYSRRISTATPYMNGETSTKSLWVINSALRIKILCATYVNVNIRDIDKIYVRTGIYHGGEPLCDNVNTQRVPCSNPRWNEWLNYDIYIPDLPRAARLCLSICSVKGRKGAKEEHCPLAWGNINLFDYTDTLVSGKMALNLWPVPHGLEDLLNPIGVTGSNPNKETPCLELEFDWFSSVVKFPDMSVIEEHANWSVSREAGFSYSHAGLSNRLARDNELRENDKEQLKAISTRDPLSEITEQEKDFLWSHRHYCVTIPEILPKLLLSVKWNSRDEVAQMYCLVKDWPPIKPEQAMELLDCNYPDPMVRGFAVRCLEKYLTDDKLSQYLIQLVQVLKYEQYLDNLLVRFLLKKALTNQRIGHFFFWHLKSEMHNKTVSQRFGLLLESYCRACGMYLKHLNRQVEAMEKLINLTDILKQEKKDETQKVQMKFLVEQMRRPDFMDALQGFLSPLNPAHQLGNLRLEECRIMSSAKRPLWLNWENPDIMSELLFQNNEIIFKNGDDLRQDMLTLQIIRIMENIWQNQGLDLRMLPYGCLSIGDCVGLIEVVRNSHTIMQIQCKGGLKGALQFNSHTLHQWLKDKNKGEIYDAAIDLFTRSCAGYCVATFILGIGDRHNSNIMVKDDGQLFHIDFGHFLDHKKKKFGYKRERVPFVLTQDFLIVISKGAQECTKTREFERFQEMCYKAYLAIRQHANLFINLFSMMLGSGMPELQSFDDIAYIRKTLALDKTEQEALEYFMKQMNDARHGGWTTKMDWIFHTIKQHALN
Sequence of p110α (P27986 whole entry partner): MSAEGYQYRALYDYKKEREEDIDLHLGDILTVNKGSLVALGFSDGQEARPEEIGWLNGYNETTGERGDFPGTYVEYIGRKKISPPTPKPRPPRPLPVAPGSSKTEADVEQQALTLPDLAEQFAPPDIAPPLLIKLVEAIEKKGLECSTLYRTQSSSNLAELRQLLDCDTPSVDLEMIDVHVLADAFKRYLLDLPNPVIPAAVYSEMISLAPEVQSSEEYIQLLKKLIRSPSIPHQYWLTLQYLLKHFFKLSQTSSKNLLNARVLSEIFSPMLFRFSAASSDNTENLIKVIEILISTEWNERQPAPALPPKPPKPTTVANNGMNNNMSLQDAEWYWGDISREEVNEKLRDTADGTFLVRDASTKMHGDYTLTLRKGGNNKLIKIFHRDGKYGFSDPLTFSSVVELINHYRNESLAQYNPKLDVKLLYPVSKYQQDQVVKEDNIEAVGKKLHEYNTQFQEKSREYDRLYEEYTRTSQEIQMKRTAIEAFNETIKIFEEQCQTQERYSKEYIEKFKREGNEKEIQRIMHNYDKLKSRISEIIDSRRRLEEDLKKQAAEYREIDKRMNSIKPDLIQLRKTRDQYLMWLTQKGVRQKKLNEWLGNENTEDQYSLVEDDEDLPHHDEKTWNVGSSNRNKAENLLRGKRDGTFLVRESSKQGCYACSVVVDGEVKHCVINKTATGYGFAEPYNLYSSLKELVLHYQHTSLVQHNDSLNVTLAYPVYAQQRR
Sequence of PI3Kα (P42336 whole entry, canonical isoform): as the sequence (P42336 whole entry H1047R) above, with R1047H counted along it
Sequence of PI3Kα (P27986 whole entry partner, canonical isoform): as the sequence (P27986 whole entry partner) above

**Q.** With NC(=O)[C@@H](Nc1ccc2c(c1)OCCn1cc(N3C(=O)OC[C@H]3C(F)F)nc1-2)C1CC1 [Compound 103, (S)-2-Cyclopropyl-2-((2-((S)-4-(difluoromethyl)-2-oxooxazolidin-3-yl)-5,6-dihydrobenzo[f]imidazo[1,2-d][1,4]oxazepin-9-yl)amino)acetamide] as the molecule, how does the pKi [1] read?
**A.** The pKi was 10.22.

**Q.** And the pEC50 [2]?
**A.** The pEC50 was 7.52.

**Q.** What about the pIC50 ([3]; Homo sapiens, whole-blood, uncorrected, read-out: a-IgM stimulated CD69 expression (whole-blood) IC50) of the same molecule?
**A.** Its pIC50 is 6.85.

**Q.** And the pIC50 ([3]; human whole-blood IC50 multiplied by measured human fu, read-out: B-cell a-IgM CD69 expression IC50, plasma-protein-binding corrected)?
**A.** Its pIC50 is 7.12.

**Q.** What about the “p110α levels (Western blot)” value [4] of the same molecule?
**A.** Its value is “promote reduction of p110α levels selectively in PI3K mutant”.

**Q.** And the concentration at 14 day ([5]; 0.1 mg/kg/day)?
**A.** The concentration at 14 day was 4.8 nM.

**Q.** What about the concentration at 14 day ([5]; 0.3 mg/kg/day) of the same molecule?
**A.** The concentration at 14 day was 11 nM.

**Q.** And the concentration at 14 day ([5]; 1 mg/kg/day)?
**A.** Its concentration at 14 day is 34 nM.

**Q.** And the Cmax ([5]; 0.1 mg/kg/day)?
**A.** The Cmax was 40 nM.

**Q.** What about the AUC(0-t) ([5]; 0.1 mg/kg/day) of the same molecule?
**A.** Its AUC(0-t) is 0.27 µM·h.

**Q.** And the Cmax ([5]; 0.3 mg/kg/day)?
**A.** Its Cmax is 130 nM.

**Q.** And the AUC(0-t) ([5]; 0.3 mg/kg/day)?
**A.** The AUC(0-t) was 0.9 µM·h.

**Q.** What about the Cmax ([5]; 1 mg/kg/day) of the same molecule?
**A.** The Cmax was 310 nM.

**Q.** And the AUC(0-t) ([5]; 1 mg/kg/day)?
**A.** Its AUC(0-t) is 2.54 µM·h.

**Q.** What about the “Cmax D14, free” value ([5]; Compound 103 0.1 mg/kg/day QD) of the same molecule?
**A.** The value was 20 nM.

**Q.** And the “Exposure AUC0-24 hr, D14, free” value ([5]; Compound 103 0.1 mg/kg/day QD)?
**A.** Its value is 0.14 µM·h.

**Q.** And the “Exposure multiples (free, AUC)” value ([5]; Compound 103 0.1 mg/kg/day QD)?
**A.** Its value is 4.7 ×.

**Q.** What about the “Exposure multiples (total, AUC)” value ([5]; Compound 103 0.1 mg/kg/day QD) of the same molecule?
**A.** Its value is 0.2 ×.

**Q.** And the “Exposure multiples to CD69 IC50 (total, Cmin)” value (“Exposure multiples to CD69 IC50” for short) ([5]; Compound 103 0.1 mg/kg/day QD)?
**A.** Its value is 0.03×.

**Q.** And the “Cmax D14, free” value ([5]; Compound 103 0.3 mg/kg/day QD)?
**A.** Its value is 66 nM.

**Q.** And the “Exposure AUC0-24 hr, D14, free” value ([5]; Compound 103 0.3 mg/kg/day QD)?
**A.** The value was 0.46 µM·h.

**Q.** What about the “Exposure multiples (free, AUC)” value ([5]; Compound 103 0.3 mg/kg/day QD) of the same molecule?
**A.** Its value is 15 ×.

**Q.** What about the “Exposure multiples (total, AUC)” value ([5]; Compound 103 0.3 mg/kg/day QD) of the same molecule?
**A.** Its value is 0.8 ×.

**Q.** And the “Exposure multiples to CD69 IC50” value ([5]; Compound 103 0.3 mg/kg/day QD)?
**A.** The value was 0.08×.

**Q.** What about the “Cmax D14, free” value ([5]; Compound 103 1 mg/kg/day QD) of the same molecule?
**A.** Its value is 160 nM.

**Q.** And the “Exposure AUC0-24 hr, D14, free” value ([5]; Compound 103 1 mg/kg/day QD)?
**A.** Its value is 1.29 µM·h.

**Q.** And the “Exposure multiples (free, AUC)” value ([5]; Compound 103 1 mg/kg/day QD)?
**A.** Its value is 43 ×.

**Q.** What about the “Exposure multiples (total, AUC)” value ([5]; Compound 103 1 mg/kg/day QD) of the same molecule?
**A.** Its value is 2.2 ×.

**Q.** And the “Exposure multiples to CD69 IC50” value ([5]; Compound 103 1 mg/kg/day QD)?
**A.** The value was 0.2×.

**Q.** And the “Lymphoid depletion (summary)” value ([5]; multiple-day dosing in Beagle dogs (7-14 days), high exposure multiples)?
**A.** Its value is “only minor amounts of lymphoid depletion at high exposure multiples”.

**Q.** And the “Pro-inflammatory signature (clinical pathology or anatomic pathology evaluation)” value ([5]; multiple-day dosing in Beagle dogs (7-14 days), 101 and 103 at >5-fold free exposure multiples over TGI60)?
**A.** Its value is “do not promote a pro-inflammatory signature”.

**Q.** What about the fraction unbound [6] of the same molecule?
**A.** Its fraction unbound is 0.507.

**Q.** What about the fraction unbound [7] of the same molecule?
**A.** Its fraction unbound is 0.03.

**Q.** What about the pEC50 [8] of the same molecule?
**A.** Its pEC50 is 6.81.

**Q.** What about the pEC50 [9] of the same molecule?
**A.** Its pEC50 is 7.55.

**Q.** What about the pEC50 [10] of the same molecule?
**A.** Its pEC50 is 7.15.

**Q.** What about the pEC50 [11] of the same molecule?
**A.** The pEC50 was 8.00.

**Q.** What about the pEC50 [12] of the same molecule?
**A.** Its pEC50 is 8.39.

**Q.** And the pEC50 [13]?
**A.** The pEC50 was 8.42.
